Our source for the EC50, IC50 and AC50 values is patent US12590062B2, “PD-1/PD-L1 inhibitors” (Gilead Sciences, Inc., priority 2017, dated 2026).

The target in one test is T1, PD-1/PD-L1 interaction (Homo sapiens, UniProt Q9NZQ7).
T1 construct: expressed in transfected cells; host or cells: CHO cells (aAPC-PD-L1) co-cultured with Jurkat cells overexpressing PD-1 and an NFAT-luciferase reporter
The test is described as follows: PD-1/PD-L1 NFAT reporter co-culture assay. The test is classed as cell-based. The settings on record: Jurkat PD-1 NFAT-luciferase cells co-cultured with aAPC-PD-L1 CHO cells, 6 hrs at 37° C.; read-out: EC50 NFAT Luciferase. In outline: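 Jurkat cells overexpressing PD-1 with NFAT-luciferase mixed with compounds and plated onto CHO aAPCs expressing anti-CD3 and PD-L1, RPMI with 2% FBS. Co-culture 6 h at 37 °C; luminescence read with ONE-Glo. EC50 from four-parameter fit.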

For the next test, the target named is PD-1/PD-L1 (Homo sapiens, UniProt Q9NZQ7). The test is described as follows: PD-1/PD-L1 biochemical protein-protein interaction assay (ALPHA). It counts as binding. The settings on record: 0.3 nM His tagged PD-L1, 2.5 nM biotinylated Fc-PD-1, 60 minutes at 25° C., read-out: IC50 PD-L1-PD-1 Alpha IC50-mono PD-L1-fcP-D1. In outline:
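IC50 values derive from four-parameter fits of ALPHA signal decrease. Assay: 0.3 nM His-tagged PD-L1 with 2.5 nM biotinylated Fc-PD-1, Hepes pH 7.4 with 0.005% Tween 20 and 0.01% BSA, 60 min at 25° C, then anti-His acceptor and streptavidin donor beads.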

In a further test the target is T2, PD-L1 (Homo sapiens, UniProt Q9NZQ7).
T2 construct: determine if they can specifically dimerize the extracellular domains of PD-L1
T2 sequence (Q9NZQ7 19-238 limits assumed): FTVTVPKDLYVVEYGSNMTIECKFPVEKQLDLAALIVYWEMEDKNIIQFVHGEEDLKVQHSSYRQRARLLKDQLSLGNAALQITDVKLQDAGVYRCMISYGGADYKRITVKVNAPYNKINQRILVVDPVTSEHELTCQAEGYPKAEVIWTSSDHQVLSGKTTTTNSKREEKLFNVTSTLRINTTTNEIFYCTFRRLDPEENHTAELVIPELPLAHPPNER
T2 sequence (Q9NZQ7 19-238 limits assumed): as above
The test is described as follows: PD-L1/PD-L1 dimerization biochemical protein-protein interaction assay (ALPHA). The test is classed as binding. The conditions noted are these: compound-induced PD-L1 dimerization, head prints '1 nM' (0.5 nM His-tagged PD-L1 and 0.5 nM FLAG-tagged PD-L1), read-out: AC50 PDL1 Dimer Alpha 1 nM. In outline:
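After 2 h at 25 °C with compound, His- and FLAG-tagged PD-L1 ECDs (each 0.5 nM final; 25 mM Hepes pH 7.4, 150 mM NaCl) were detected by sequential anti-His acceptor and anti-FLAG donor bead incubations. Dose-response curves fitted to four-parameter equation for AC50.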

SMILES strings stand for the structures.

Sequence of PD-1/PD-L1 (Q9NZQ7 19-238 limits assumed): as above
T1 sequence (Q9NZQ7 19-290): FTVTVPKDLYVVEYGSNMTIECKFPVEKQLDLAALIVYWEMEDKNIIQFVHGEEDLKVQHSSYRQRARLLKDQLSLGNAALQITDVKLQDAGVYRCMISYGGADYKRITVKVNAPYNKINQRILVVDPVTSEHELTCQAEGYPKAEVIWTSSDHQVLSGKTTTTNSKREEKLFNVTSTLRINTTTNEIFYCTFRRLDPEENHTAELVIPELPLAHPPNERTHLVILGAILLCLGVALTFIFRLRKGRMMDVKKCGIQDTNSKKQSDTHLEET

What is called EC50 is the midpoint of the concentration-response curve. A word on the IC50: it is the point on the concentration scale where inhibition reaches its midpoint. As usually defined, the AC50 is the concentration giving half of the maximal activity seen. In the case of `COc1nc(-c2cccc(-c3csc(-c4cnc(CNC[C@@H]5CCC(=O)N5)c(OC)n4)c3)c2Cl)ccc1CNC[C@@H]1CCC(=O)N1` [Example 600], the EC50 on PD-1/PD-L1 interaction stood at 240 nM. Moreover, at PD-1/PD-L1, the IC50 came out at 0.39 nM. The AC50 on PD-L1 was 261 nM.

With `COc1nc(-c2ccc(-c3cccc(-c4ccc(CNC[C@@H]5CCC(=O)N5)c(OC)n4)c3Cl)s2)ccc1CNC[C@@H]1CCC(=O)N1` [Example 601], at PD-1/PD-L1 interaction, the EC50 is 748 nM. Also, the IC50 on PD-1/PD-L1 is 5.27 nM. Besides, the AC50 at PD-L1 came out at 1130 nM.

In the case of `COc1nc(-c2cccc(-c3cccc(-c4cnc5c(CNC[C@H]6CCC(=O)N6)cn(C)c5c4)c3Cl)c2Cl)ccc1CNC[C@H]1CCC(=O)N1` [Example 602], at PD-1/PD-L1 interaction, the 50% effective concentration (EC50) stood at 242 nM. Besides, the IC50 at PD-1/PD-L1 was determined as 0.236 nM. The AC50 at PD-L1 came out at 124 nM.

With `COc1nc(-c2cccc(-c3cccc(-c4ccc5c(CNC[C@@H]6CCC(=O)N6)cc(=O)n(C)c5c4)c3Cl)c2Cl)ccc1CNC[C@@H]1CCC(=O)N1` [Example 603], the half-maximal effective concentration (EC50) at PD-1/PD-L1 interaction was determined as 158 nM. Moreover, the concentration for half-maximal inhibition (IC50) on PD-1/PD-L1 stood at 0.206 nM. Moreover, on PD-L1, the AC50 amounted to 235 nM.

On to `COc1nc(-c2cccc(-c3cccc(-c4ccc5c(CNC[C@@H]6CCC(=O)N6)cccc5c4)c3Cl)c2Cl)ccc1CNC[C@@H]1CCC(=O)N1` [Example 604], for which, on PD-1/PD-L1 interaction, the half-maximal effective concentration (EC50) is 552 nM. In addition, the 50% inhibitory concentration (IC50) on PD-1/PD-L1 is 4.87 nM. The AC50 at PD-L1 is 935 nM.

For the compound `COc1nc(-c2cccc(-c3cccc(-c4ccc5c(CNC[C@H]6CCC(=O)N6)cn(C)c5c4)c3Cl)c2Cl)ccc1CNC[C@H]1CCC(=O)N1` [Example 605], the EC50 on PD-1/PD-L1 interaction stood at 130 nM. The IC50 on PD-1/PD-L1 was 1.05 nM. Further, the AC50 at PD-L1 was found to be 352 nM.

Take `COc1nc(-c2cccc(-c3cccc(-c4ccc5[nH]c(CN(C)C)cc5c4)c3Cl)c2Cl)ccc1CNC[C@@H]1CCC(=O)N1` [Example 606]: the EC50 on PD-1/PD-L1 interaction was no less than 50000 nM. In addition, on PD-1/PD-L1, the IC50 was 6.23 nM. In addition, at PD-L1, the AC50 stood at 558 nM.

Regarding `COc1nc(-c2cccc(-c3cccc(-c4ccc5cc(CN(C)C)[nH]c5c4)c3Cl)c2Cl)ccc1CNC[C@@H]1CCC(=O)N1` [Example 607], the 50% effective concentration (EC50) at PD-1/PD-L1 interaction amounted to 1730 nM. Further, the IC50 at PD-1/PD-L1 turned out to be 1.19 nM. For the same compound, on PD-L1, the AC50 amounted to 296 nM.

For the compound `COc1nc(-c2cccc(-c3cccc(-c4ccc5[nH]cc(CN(C)C)c5c4)c3Cl)c2Cl)ccc1CNC[C@@H]1CCC(=O)N1` [Example 608], the EC50 on PD-1/PD-L1 interaction was no less than 50000 nM. Moreover, at PD-1/PD-L1, the IC50 stood at 1.72 nM. The AC50 on PD-L1 was 214 nM.

Turning to `COc1nc(-c2cccc(-c3cccc(-c4ccc5c(C[N+](C)(C)C)c[nH]c5c4)c3Cl)c2Cl)ccc1CNC[C@@H]1CCC(=O)N1` [Example 609], the EC50 on PD-1/PD-L1 interaction stood at 541 nM. In addition, the half-maximal inhibitory concentration (IC50) on PD-1/PD-L1 was found to be 0.387 nM. In addition, the concentration at half-maximal activity (AC50) on PD-L1 stood at 143 nM.

On to `COc1nc(-c2cccc(-c3cccc(-c4ccc5c(CN(C)C)c[nH]c5c4)c3Cl)c2Cl)ccc1CNC[C@@H]1CCC(=O)N1` [Example 610], for which the EC50 at PD-1/PD-L1 interaction is no less than 50000 nM. In addition, the IC50 at PD-1/PD-L1 was found to be 0.746 nM. For the same compound, the AC50 on PD-L1 is 105 nM.

`COc1nc(-c2cccc(-c3cccc(-c4ccc5c(c4)[C@H](O)C[C@@H]5N)c3Cl)c2Cl)ccc1CNC[C@@H]1CCC(=O)N1` [Example 611]: the EC50 on PD-1/PD-L1 interaction worked out at 223 nM. The IC50 at PD-1/PD-L1 was found to be 0.482 nM. Further, the AC50 on PD-L1 turned out to be 408 nM.

As for `COc1nc(-c2cccc(-c3cccc(-c4ccc5c(c4)CCC(N)C5)c3Cl)c2Cl)ccc1CN1CC2(CCC(=O)N2)C1` (stereo not drawn) [Example 612], at PD-1/PD-L1 interaction, the EC50 was no less than 50000 nM. Also, the IC50 on PD-1/PD-L1 came out at 2.45 nM. Moreover, on PD-L1, the AC50 was determined as 729 nM.

Take `COc1nc(-c2cccc(-c3cccc(-c4ccc5c(c4)C[C@@H](N)C5)c3Cl)c2Cl)ccc1CN1CC2(CCC(=O)N2)C1` [Example 613]: the EC50 on PD-1/PD-L1 interaction is 484 nM. Further, the IC50 on PD-1/PD-L1 was found to be 1.38 nM. Also, the AC50 on PD-L1 came out at 158 nM.

As to `COc1nc(-c2cccc(-c3cccc(-c4ccc5ncc(CN6CC7(CCC(=O)N7)C6)n5c4)c3Cl)c2Cl)ccc1CN1CC2(CCC(=O)N2)C1` [Example 614], at PD-1/PD-L1 interaction, the EC50 was no less than 50000 nM. For the same compound, at PD-1/PD-L1, the concentration for half-maximal inhibition (IC50) was 11.5 nM. Further, the AC50 at PD-L1 is no less than 10000 nM.
